Laboratory results published in PMC9511441, “Semisynthetic teicoplanin derivatives with dual antimicrobial activity against SARS-CoV-2 and multiresistant bacteria” (Scientific Reports, 2022).
≈ marks a conversion by molar mass, not a printed value. Read-outs that look alike come from different tables or passages of the source.

Tests used:
E. faecium = experiment: microbe, parasite or virus in culture; format: cell-based; details: Enterococcus faecium
S. epidermidis = experiment: microbe, parasite or virus in culture; format: cell-based; details: Staphylococcus epidermidis
S. aureus = experiment: MIC, broth microdilution; format: cell-based; details: Staphylococcus aureus
S.pyogenes = experiment: MIC, broth microdilution; format: cell-based; details: Streptococcus pyogenes
S. haemolyticus = experiment: MIC, broth microdilution; format: cell-based; details: Staphylococcus haemolyticus
E. faecalis = experiment: MIC, broth microdilution; format: cell-based; details: Enterococcus faecalis
[1] = system: a panel of bacteria including MRSA; set-up: method as in PMID 32652783; details: earlier work; cited from earlier work
HCoV-229E = details: earlier work; read-out: EC50 against human coronavirus 229E (HCoV-229E); cited from earlier work
VeroE6 cells = experiment: Cytotoxicity in mock-infected VeroE6 cells (XTT); format: cell-based, African green monkey; details: mock-infected Vero E6 cells, three days, XTT
HEL cells = experiment: Cytotoxicity in mock-infected HEL cells (MTS); format: cell-based, human; details: mock-infected HEL cells, MTS, mean of 2–3 tests
[2] = molecular target: T1, human recombinant cathepsin L (Homo sapiens, UniProt P07711); experiment: biochemical; format: biochemical; details: read-out: Cathepsin L IC50; pH 5.5, Z-Phe-Arg-AMC substrate
T1 construct: made in house; host or cells: Escherichia coli
Method: Cathepsin L inhibition was assessed as reported. Briefly, human recombinant cathepsin L was expressed in Escherichia coli[33]. Enzymatic activity was determined in 100 mM acetate buffer (pH 5.5) containing 0.1% PEG 8000, 5 mM cysteine and 1.5 mM EDTA. The enzyme was first activated in assay buffer for 5 min at 37 °C, after which it was added to the wells of a black microplate containing the Z-Phe-Arg-AMC substrate (Bachem) and compounds. Formation of the fluorescent cleavage product was monitored for 50 min at 37 °C, using a Tecan Infinit M1000 spectrofluorimeter set at 460 nm emission and 380 nm excitation wavelength. All assay mixtures contained 5% (v/v) DMSO and 0.01% Triton X-100 to prevent false-positive inhibition due to formation of compound aggregates. All measurements were performed in triplicate and repeated twice. The relative inhibition was calculated using the equation: Relative inhibition (%) = 100(1 − vi/vo), where vi and vo designate the reaction velocities in the presence and absence of inhibitor, respectively. IC50 values were determined from nine data points at different inhibitor concentrations.

T1 sequence (P07711 114-333): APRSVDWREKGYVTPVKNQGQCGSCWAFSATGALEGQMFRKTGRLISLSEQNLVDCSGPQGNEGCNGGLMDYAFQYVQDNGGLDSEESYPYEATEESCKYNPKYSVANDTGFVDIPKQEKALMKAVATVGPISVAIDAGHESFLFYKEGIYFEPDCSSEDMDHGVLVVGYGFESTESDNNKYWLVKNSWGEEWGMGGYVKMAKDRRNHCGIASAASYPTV

CC(=O)N[C@H]1[C@H](O[C@@H]2c3ccc(c(Cl)c3)Oc3cc4cc(c3O)Oc3ccc(cc3Cl)C[C@H]3NC(=O)[C@H](n5cc(COCCOCCCC(F)(F)C(F)(F)C(F)(F)C(F)(F)F)nn5)c5ccc(O)c(c5)Oc5cc(O)cc(c5)[C@H](NC3=O)C(=O)N[C@H]4C(=O)N[C@H]3C(=O)N[C@@H]2C(=O)N[C@H](C(=O)O)c2cc(O)cc(O)c2-c2cc3ccc2O)O[C@H](CO)[C@@H](O)[C@@H]1O [Compound 2]
MIC (E. faecium; read-out: Average MIC value, E. faecium VAN^R,TEI^R/VanA, 8 strains): > 8 µg/mL | MIC (E. faecium; read-out: Average MIC value, E. faecium VAN^S, TEI^S, 1 strain): 1 µg/mL (≈ 0.559 µM) | MIC (E. faecium; read-out: MIC value, E.faecium E335, VAN,TEI,LNZ/VanA): > 8 µg/mL | MIC (E. faecium; read-out: MIC value, E.faecium E355, VAN,TEI,LNZ/VanA): > 8 µg/mL | MIC (E. faecium; read-out: MIC value, E.faecium E832, VAN,TEI,LNZ/VanA): > 8 µg/mL | MIC (E. faecium; read-out: MIC value, E.faecium E854, VAN,TEI,LNZ/VanA): > 8 µg/mL | MIC (E. faecium; read-out: MIC value, E.faecium E859, VAN,TEI,LNZ/VanA): > 8 µg/mL | MIC (E. faecium; read-out: MIC value, E.faecium E1114, VAN,TEI,LNZ/VanA): > 8 µg/mL | MIC (E. faecium; read-out: MIC value, E.faecium E1131, VAN,TEI,LNZ/VanA): > 8 µg/mL | MIC (E. faecium; read-out: MIC value, E.faecium E1132, VAN,TEI,LNZ/VanA): > 8 µg/mL | MIC (E. faecium; read-out: MIC value, E.faecium TX0016): 1 µg/mL (≈ 0.559 µM) | MIC (S. epidermidis; read-out: Average MIC value, S. epidermidis mecA, 6 strains): 0.645 µg/mL (≈ 0.361 µM) | MIC (S. epidermidis; read-out: MIC value, S.epidermidis ORI_R1, mecA): 0.5 µg/mL (≈ 0.28 µM) | MIC (S. epidermidis; read-out: MIC value, S.epidermidis ORI_R2, mecA): 0.5 µg/mL (≈ 0.28 µM) | MIC (S. epidermidis; read-out: MIC value, S.epidermidis ORI_R3, mecA): 0.25 µg/mL (≈ 0.14 µM) | MIC (S. epidermidis; read-out: MIC value, S.epidermidis ORI_R4, mecA): 0.5 µg/mL (≈ 0.28 µM) | MIC (S. epidermidis; read-out: MIC value, S.epidermidis TEI_R1, mecA): 0.125 µg/mL (≈ 0.0699 µM) | MIC (S. epidermidis; read-out: MIC value, S.epidermidis TEI_R2, mecA): 2 µg/mL (≈ 1.12 µM) | MIC (S. aureus; ATCC 29213 / MSSA, read-out: MIC value, S. aureus ATCC29213, MSSA): 0.0625 µg/mL (≈ 0.0349 µM) | MIC (S. aureus; MRSA / USA300, read-out: MIC value, S. aureus USA300, CA-MRSA): 0.25 µg/mL (≈ 0.14 µM) | MIC (S. aureus; MRSA, read-out: Average MIC value, S. aureus CA-MRSA, 1 strain): 0.25 µg/mL (≈ 0.14 µM) | MIC (S. aureus; MRSA, read-out: Average MIC value, S. aureus MRSA, 7 strains): 0.285 µg/mL (≈ 0.159 µM) | MIC (S. aureus; MRSA, read-out: MIC value, S. aureus 73OL, MRSA): 0.25 µg/mL (≈ 0.14 µM) | MIC (S. aureus; MRSA, read-out: MIC value, S. aureus 214OL, MRSA): 0.25 µg/mL (≈ 0.14 µM) | MIC (S. aureus; MRSA, read-out: MIC value, S. aureus 1041OL, MRSA): 0.25 µg/mL (≈ 0.14 µM) | MIC (S. aureus; MRSA, read-out: MIC value, S. aureus A6918, MRSA): 0.5 µg/mL (≈ 0.28 µM) | MIC (S. aureus; MRSA, read-out: MIC value, S. aureus A6919, MRSA): 0.25 µg/mL (≈ 0.14 µM) | MIC (S. aureus; MRSA, read-out: MIC value, S. aureus Mu50, MRSA): 0.25 µg/mL (≈ 0.14 µM) | MIC (S. aureus; MRSA, read-out: MIC value, S. aureus N315, MRSA): 0.25 µg/mL (≈ 0.14 µM) | MIC (S. aureus; MSSA / NEWMAN, read-out: MIC value, S. aureus Newman, MSSA): 0.5 µg/mL (≈ 0.28 µM) | MIC (S. aureus; MSSA, read-out: Average MIC value, S. aureus MSSA, 4 strains): 0.265 µg/mL (≈ 0.148 µM) | MIC (S. aureus; MSSA, read-out: MIC value, S. aureus MSSA476, MSSA): 0.25 µg/mL (≈ 0.14 µM) | MIC (S. aureus; MSSA, read-out: MIC value, S. aureus SA564, MSSA): 0.25 µg/mL (≈ 0.14 µM) | MIC (S.pyogenes; read-out: MIC value, S.pyogenes H232): 0.0625 µg/mL (≈ 0.0349 µM) | MIC (S.pyogenes; read-out: MIC value, S.pyogenes H550): 0.0625 µg/mL (≈ 0.0349 µM) | MIC (S.pyogenes; read-out: MIC value, S.pyogenes H578): 0.0625 µg/mL (≈ 0.0349 µM) | MIC (S. haemolyticus; S. haemolyticus mecA, 6 strains, read-out: Average MIC value): 1.9 µg/mL (≈ 1.06 µM) | MIC (S. haemolyticus; S.haemolyticus DALB_R1, mecA, read-out: MIC value): 4 µg/mL (≈ 2.24 µM) | MIC (S. haemolyticus; S.haemolyticus DALB_R2, mecA, read-out: MIC value): 2 µg/mL (≈ 1.12 µM) | MIC (S. haemolyticus; S.haemolyticus DALB_R3, mecA, read-out: MIC value): 2 µg/mL (≈ 1.12 µM) | MIC (S. haemolyticus; S.haemolyticus DALB_R4, mecA, read-out: MIC value): 2 µg/mL (≈ 1.12 µM) | MIC (S. haemolyticus; S.haemolyticus DALB_R5, mecA, read-out: MIC value): 0.5 µg/mL (≈ 0.28 µM) | MIC (S. haemolyticus; S.haemolyticus ORI_R1, mecA, read-out: MIC value): 1 µg/mL (≈ 0.559 µM) | MIC (E. faecalis; read-out: Average MIC value, E. faecalis VAN^R,TEI^R/VanA, 1 strain): > 8 µg/mL | MIC (E. faecalis; read-out: Average MIC value, E. faecalis VAN^S, TEI^S, 2 strains): 1 µg/mL (≈ 0.559 µM) | MIC (E. faecalis; read-out: MIC value, E.faecalis JH2-2): 1 µg/mL (≈ 0.559 µM) | MIC (E. faecalis; read-out: MIC value, E.faecalis OG1RF): 1 µg/mL (≈ 0.559 µM) | MIC (E. faecalis; read-out: MIC value, E.faecalis V583, VAN,TEI/VanA): > 8 µg/mL | MIC against a panel of bacteria including MRSA [1]: 0.5 to 1 µM | EC50 (HCoV-229E): > 100 µM | CC50 (VeroE6 cells): > 100 µM | CC50 (HEL cells): > 100 µM | IC50 [2]: 98 ± 1 µM
